Data taken from patent US20130158024A1, “TRICYCLIC NECROSTATIN COMPOUNDS” (priority 2005, published 2013).
Entries after “also recorded” stand apart in the source; their conditions may differ.

Columns and labels:
[1] = tested on: FADD deficient Jurkat cells
LC3-II = LC3-II induction (autophagy marker) in cultured cells, western blotting; type: cell-based
Source text: FIG. 11 is a set of gels showing the detection of cleaved LC3 in CICD of cultured cells and in ischemic brain injury. […] Equal amounts of cellular proteins were subjected to SDS-PAGE and western blotting with anti-LC3 and tubulin antibodies. Arrows point to the LC3II. […] Isoflurane-anesthetized SV-129 mice were subjected to two hours transient middle cerebral artery (MCA) occlusion by the intraluminal filament techniques. Ischemic and contralateral areas of the brain were collected at indicated times following MCA, lysed in RIPA buffer and equal amount of total protein were subjected to western blotting using anti-LC3 and tubulin antibodies. FIG. 11C is similar to FIG. 11B, except that mice were injected with 2 μL of 4 mM 7-Cl-Nec-1 icy at four and six hours, and brains were collected at eight hours after occlusion.
In this and subsequent panels, cell viability was determined via ATP assay. Numbers represent viability normalized to that of the DMSO-treated cells in the absence of TNFα and menadione. Throughout, error bars represent standard deviations. […] Representative images are shown. […] The ratio of LC3-II to tubulin signals was calculated (“Ratio”) and normalized to the value in the control sample. […] In FIG. 28H, expression of beclin-1 (“Bec”) and tubulin (“Tub”) in the stable populations of cells in FIG. 28G was analyzed by western blotting.

U937 cells = assay: Necrosis of U937 cells induced by TNFα and zVAD.fmk (primary and secondary screen), ATP assay; type: cell-based, human; settings: U937, 72 hours
Description: We plated U937 cells in 384-well plates at 5,000-10,000 cells per well in 40-μl phenol red-free RPMI 1640 medium containing 100 μM zVAD.fmk and 40 ng ml^−1 human TNFα using a Multidrop dispenser (Thermo Electron). We added 100 nl of the DiverSetE (5 mg ml^−1 in DMSO, Chembridge) using a Seiko-based custom-built pin transfer robot (Institute of Chemistry and Cell Biology, Harvard Medical School). After 72 hours, we assessed cell viability using a luminescence-based ATP assay (ATPLite-M, PerkinElmer). We also dispensed cells not treated with TNFα in each plate as a positive control. We purchased Nec-1 and other preliminary positive hits from Chembridge for individual retesting.
Using a known paradigm of death receptor mediated caspase-independent cell death in human U937 cells, we established a high-throughput screen in 384 well format for small molecule inhibitors of caspase-independent cell death (CICD). In this system, U937 cells were induced to undergo CICD in the presence of TNFα and zVAD.fmk, and the rate of cell death was determined by an ATP-Lite-M assay, a commercial luminescence-based assay measuring cellular ATP levels (Packard). U937 cells were chosen because these cells can be induced to undergo CICD very efficiently upon TNFα/zVAD treatment in the absence of additional, stress-inducing sensitizing stimuli, such as CHX, making this system perfectly suited for reliable identification of CICD inhibitors. Furthermore, rapid suspension growth kinetics of U937 cells results in the availability of large quantities of cells, which translates into robust signals ideal for high throughput screening. ATP-Lite-M assay was chosen because among all the different assay systems tested, it gives the most consistent and robust signal, which is also critical for high throughput screening. Exposure of U937 cells to TNFα alone led to partial cell death, whereas co-treatment with TNFα and caspase inhibitor zVAD.fmk produced significant increase in the amount of cell death and ATP loss consistent with the published observations. In addition, in the presence of zVAD.fmk, the morphology of cell loss changed from apoptosis with cell shrinkage, nuclear fragmentation, membrane blebbing to necrosis, characterized by cell swelling, increase in cytosolic density, and early loss of plasma membrane integrity. Other cell death assays, such as an MTT assay (mitochondrial metabolism) and Sytox assay (permeability of the plasma membrane), were used as alternative means to validate the screen, and consistently produced results similar to those obtained using ATP-Lite-M assay, which confirmed that the ATP-Lite-M assay can be used to accurately measure the extent of CICD.
In a primary screen, U-937 cells (5×10^5 or 7.5×10^5 cells/ml) were first exposed to zVAD-fmk (100 μM). Thirty minutes later the same cells were exposed to a chemical compound from the library (5 mg/ml, dissolved in 0.1-0.5 μl of DMSO, giving a final DMSO concentration of 0.3% to 1.5%). After an additional thirty minutes, TNFα (40 ng/ml) was added to the cell culture medium. The cells were then incubated at 37 C for 72 hours, and were then assayed for cellular ATP levels. […] Compounds which maintained cellular ATP levels were compounds which blocked necrosis triggered by zVAD-fmk and TNFα.
In a secondary screen, the compounds identified from the first screen, above, to decrease necrosis induced by zVAD-fmk and TNFα were assayed for their potency. Serial dilution of each chemical compound was performed and the compounds were administered to U-937 cells, as per the primary screen. The concentrations of each compound were 70 μM, 23 μM, 8 μM, and 2.5 μM. The level of necrosis occurring in response to zVAD-fmk, TNFα, and the various concentrations of chemical compounds was assayed as described above for the primary screen.

methylthiohydantoin-tryptophane [Nec-1] was tested, and the “non-specific cytotoxicity, in words” value ([1]; 24 hours, ATP assay) was “does not induce non-specific cytotoxicity in FADD-deficient Jurkat cells”, the LD50 ([1]; compound in the absence of TNFα) was 374 µM and the “LC3-II induction caused by rapamycin, in words” value (LC3-II; BALB/c 3T3 cells, 2 μM rapamycin) was “had no effect on the LC3-II induction caused by rapamycin”. The “necroptotic LC3-II induction in cells, in words” value (LC3-II; necroptotic stimuli (TNFα, TNFα-zVAD.fmk, FasL-zVAD.fmk)) was “the appearance of LC3II was efficiently inhibited by Nec-1; also recorded: efficiently blocked the necroptotic LC3-II induction” and the “inhibition of necrosis induced by TNFα/zVAD.fmk, in words” value (U937 cells) was “inhibition of cell death of U937 cells treated with TNFα and zVAD.fmk for 72 hours; also recorded: provided expected protection against TNFα/zVAD.fmk; also recorded: efficiently blocked necroptotic death in U937 cells in a concentration-dependent fashion”.
